# Reference: the supplement of paper PMC10307832
# Legend:
# Assay in all cases: relative viability (nuclei count vs DMSO), 5 days (fraction); higher = more cells survive
# Tipifarnib + Navitoclax = compound: Cn1cncc1[C@@](N)(c1ccc(Cl)cc1)c1ccc2c(c1)c(-c1cccc(Cl)c1)cc(=O)n2C [Tipifarnib] + CC1(C)CCC(c2ccc(Cl)cc2)=C(CN2CCN(c3ccc(C(=O)NS(=O)(=O)c4ccc(N[C@H](CCN5CCOCC5)CSc5ccccc5)c(S(=O)(=O)C(F)(F)F)c4)cc3)CC2)C1 [Navitoclax] (partner 0.5 µM)
# How it was run: (§1)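 Lung cancer cell lines in 1536-well plates were dosed by pin tool the day after seeding, either with one drug alone or with a fixed anchor-drug dose plus five library-drug doses (not always all listed) in √10 steps. After 5 days, cells were fixed and their nuclei stained in one step (final 0.05% Triton X-100, 1% formaldehyde, 1 ug/ml Hoechst), then counted on 4× images. Relative viability is the nuclei count in treated wells divided by that in vehicle wells. Values are medians of duplicate plates.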
# Tipifarnib + Linsitinib = compound: Cn1cncc1[C@@](N)(c1ccc(Cl)cc1)c1ccc2c(c1)c(-c1cccc(Cl)c1)cc(=O)n2C [Tipifarnib] + C[C@]1(O)C[C@@H](c2nc(-c3ccc4ccc(-c5ccccc5)nc4c3)c3c(N)nccn32)C1 [Linsitinib] (partner 1 µM)
# How it was run: as §1
# Tipifarnib + Alpelisib = compound: Cn1cncc1[C@@](N)(c1ccc(Cl)cc1)c1ccc2c(c1)c(-c1cccc(Cl)c1)cc(=O)n2C [Tipifarnib] + Cc1nc(NC(=O)N2CCC[C@H]2C(N)=O)sc1-c1ccnc(C(C)(C)C(F)(F)F)c1 [Alpelisib] (partner 2 µM)
# How it was run: as §1
# Tipifarnib + Vorinostat = compound: Cn1cncc1[C@@](N)(c1ccc(Cl)cc1)c1ccc2c(c1)c(-c1cccc(Cl)c1)cc(=O)n2C [Tipifarnib] + O=C(CCCCCCC(=O)Nc1ccccc1)NO [Vorinostat] (partner 1 µM)
# How it was run: as §1
Cell Line,relative viability (Tipifarnib + Navitoclax; first compound 0.01 µM),relative viability (Tipifarnib + Navitoclax; first compound 0.03162 µM),relative viability (Tipifarnib + Navitoclax; first compound 0.1 µM),relative viability (Tipifarnib + Navitoclax; first compound 0.3162 µM),relative viability (Tipifarnib + Navitoclax; first compound 1 µM),relative viability (Tipifarnib + Linsitinib; first compound 0.01 µM),relative viability (Tipifarnib + Linsitinib; first compound 0.03162 µM),relative viability (Tipifarnib + Linsitinib; first compound 0.1 µM),relative viability (Tipifarnib + Linsitinib; first compound 0.3162 µM),relative viability (Tipifarnib + Linsitinib; first compound 1 µM),relative viability (Tipifarnib + Alpelisib; first compound 0.01 µM),relative viability (Tipifarnib + Alpelisib; first compound 0.03162 µM),relative viability (Tipifarnib + Alpelisib; first compound 0.1 µM),relative viability (Tipifarnib + Alpelisib; first compound 0.3162 µM),relative viability (Tipifarnib + Alpelisib; first compound 1 µM),relative viability (Tipifarnib + Vorinostat; first compound 0.01 µM),relative viability (Tipifarnib + Vorinostat; first compound 0.03162 µM),relative viability (Tipifarnib + Vorinostat; first compound 0.1 µM),relative viability (Tipifarnib + Vorinostat; first compound 0.3162 µM),relative viability (Tipifarnib + Vorinostat; first compound 1 µM)
LCLC-97TM1,0.557,0.359,0.241,0.446,0.19,0.204,0.169,0.174,0.192,0.169,0.218,0.181,0.2,0.17,0.173,0.657,0.166,0.518,0.394,0.121
HARA,1.18,1.14,1.18,1.14,1.13,1.08,0.925,0.956,0.94,0.87,0.924,0.792,0.781,0.662,0.653,0.513,0.406,0.364,0.325,0.326
HCC-78,0.752,0.896,0.743,0.59,0.302,0.607,0.565,0.562,0.354,0.361,0.41,0.314,0.317,0.271,0.292,0.503,0.451,0.392,0.385,0.366
NCI-H1666,0.853,0.758,0.727,0.644,0.637,0.719,0.704,0.623,0.549,0.573,1,0.725,0.851,0.717,0.538,1.05,0.874,1.02,0.883,0.878
NCI-H2347,0.782,0.576,0.643,0.627,0.598,0.973,0.739,0.649,0.693,0.735,1.05,0.798,0.714,0.689,0.674,0.547,0.515,0.497,0.431,0.476
NCI-H838,1.09,0.978,0.932,0.854,0.862,0.955,0.826,0.684,0.628,0.6,1.02,0.777,0.712,0.553,0.659,0.665,0.646,0.606,0.568,0.588
NCI-H2023,1.01,0.773,0.68,0.457,0.47,0.598,0.503,0.37,0.329,0.384,0.595,0.442,0.391,0.326,0.334,0.598,0.366,0.289,0.186,0.137
201T,1.21,1.23,1.2,1.15,1.18,1.04,1.04,0.989,0.949,1.07,1.01,1.04,1.04,0.98,0.977,1.04,0.965,0.908,0.839,0.583
NCI-H1915,0.791,0.65,0.768,0.455,0.469,0.902,0.695,0.631,0.542,0.583,0.817,0.624,0.544,0.48,0.457,0.544,0.43,0.373,0.305,0.336
NCI-H2009,1.13,1.06,0.785,0.63,0.744,1.19,1.09,0.903,0.702,0.667,1.18,1.06,0.899,0.689,0.679,0.604,0.411,0.405,0.577,0.504
BEN,0.0636,0.0524,0.0587,0.0688,0.0536,1.03,1.18,0.835,0.696,0.716,1.14,0.915,1.06,0.811,0.769,0.597,0.488,0.538,0.464,0.422
PC-14,1.05,0.847,0.658,0.482,0.51,0.98,0.965,0.713,0.432,0.437,0.99,0.774,0.653,0.392,0.451,0.698,0.324,0.455,0.236,0.157
SK-MES-1,1.3,1.11,0.866,0.785,0.655,1.08,0.917,0.985,0.792,0.809,1.03,0.897,0.634,0.648,0.501,1.14,0.99,1.05,0.842,0.57
NCI-H727,0.622,0.53,0.421,0.41,0.277,0.285,0.334,0.321,0.3,0.259,0.683,0.516,0.569,0.496,0.513,1.15,1.22,1.18,1.32,0.91
NCI-H1355,0.906,0.791,0.767,0.614,0.628,0.861,0.896,0.649,0.541,0.69,0.874,0.804,0.678,0.518,0.599,0.625,0.544,0.409,0.466,0.301
NCI-H1975,1.29,1.04,1.08,0.541,0.734,1.07,1.16,0.876,0.614,0.714,0.713,0.599,0.468,0.329,0.351,0.639,0.682,0.588,0.485,0.491
LK-2,1.08,0.65,0.7,0.421,0.373,0.499,0.506,0.399,0.379,0.487,1.21,1.06,0.827,0.544,0.639,0.262,0.237,0.244,0.193,0.168
NCI-H661,,,,,,0.754,0.616,0.502,0.511,0.438,0.648,0.901,0.399,0.598,0.446,0.822,0.657,0.684,0.558,0.569
HCC-366,1.14,0.762,0.751,0.483,0.188,0.619,0.487,0.343,0.206,0.0767,0.559,0.47,0.272,0.159,0.0543,0.249,0.145,0.102,0.067,0.0373

Cell Line,relative viability (Tipifarnib + Navitoclax; first compound 0.01 µM),relative viability (Tipifarnib + Navitoclax; first compound 0.03162 µM),relative viability (Tipifarnib + Navitoclax; first compound 0.1 µM),relative viability (Tipifarnib + Navitoclax; first compound 0.3162 µM),relative viability (Tipifarnib + Navitoclax; first compound 1 µM),relative viability (Tipifarnib + Linsitinib; first compound 0.01 µM),relative viability (Tipifarnib + Linsitinib; first compound 0.03162 µM),relative viability (Tipifarnib + Linsitinib; first compound 0.1 µM),relative viability (Tipifarnib + Linsitinib; first compound 0.3162 µM),relative viability (Tipifarnib + Linsitinib; first compound 1 µM),relative viability (Tipifarnib + Alpelisib; first compound 0.01 µM),relative viability (Tipifarnib + Alpelisib; first compound 0.03162 µM),relative viability (Tipifarnib + Alpelisib; first compound 0.1 µM),relative viability (Tipifarnib + Alpelisib; first compound 0.3162 µM),relative viability (Tipifarnib + Alpelisib; first compound 1 µM),relative viability (Tipifarnib + Vorinostat; first compound 0.01 µM),relative viability (Tipifarnib + Vorinostat; first compound 0.03162 µM),relative viability (Tipifarnib + Vorinostat; first compound 0.1 µM),relative viability (Tipifarnib + Vorinostat; first compound 0.3162 µM),relative viability (Tipifarnib + Vorinostat; first compound 1 µM)
HOP-62,0.937,0.55,0.377,0.233,0.33,0.916,0.64,0.38,0.304,0.301,1.31,0.824,0.377,0.281,0.325,0.624,0.186,0.335,0.243,0.203
NCI-H1944,1.18,0.826,0.913,0.519,0.524,1.3,1,1.09,0.644,0.737,0.805,0.742,0.648,0.54,0.572,0.509,0.382,0.309,0.289,0.285
SW 1573,1.05,0.678,0.49,0.407,0.331,0.7,0.709,0.518,0.387,0.365,0.667,0.718,0.449,0.44,0.331,0.701,0.434,0.308,0.312,0.179
EBC-1,0.27,0.187,0.207,0.143,0.186,0.854,0.288,0.332,0.265,0.212,0.697,0.371,0.36,0.331,0.274,,,,,
NCI-H1648,,,,,,,,,,,,,,,,0.356,0.394,0.419,0.384,0.372
SW 900,,,,,,,,,,,,,,,,0.435,0.144,0.278,0.227,0.187
ABC-1,,,,,,0.827,,0.76,0.665,0.554,1.01,,0.869,0.721,0.822,1.16,0.481,0.781,0.593,0.613
NCI-H1792,0.717,0.583,0.466,0.364,0.108,0.436,0.453,0.257,0.207,0.233,0.699,0.643,0.345,0.293,0.281,,,,,
NCI-H1563,,,,,,1.13,1.13,1.13,1.03,1.14,0.991,0.867,0.862,0.893,0.757,,,,,
NCI-H1299,0.966,0.969,0.977,0.88,0.828,1.06,0.886,0.906,0.803,0.635,1.04,1.04,0.971,0.973,0.941,,,,,
ChaGo-K-1,1.07,1.11,1.09,0.933,0.626,,,,,,,,,,,0.772,0.706,0.752,0.691,0.297
NCI-H2170,0.733,0.566,0.448,0.433,0.338,,,,,,0.839,0.818,0.74,0.671,0.699,0.831,0.774,0.697,0.637,0.335
NCI-H522,,,,,,,,,,,,,,,,0.908,0.761,0.835,0.776,0.806
A549,1.18,0.981,0.678,0.531,0.341,0.707,0.596,0.49,0.325,0.233,0.759,0.649,0.398,0.346,0.283,,,,,
NCI-H358,,,,,,0.782,0.691,0.664,0.512,0.48,0.918,0.748,0.8,0.504,0.431,0.638,0.431,0.365,0.309,0.247
NCI-H650,,,,,,0.825,0.706,0.662,0.526,0.348,1.07,0.988,0.827,0.661,0.6,0.366,0.325,0.346,0.249,0.189
LCLC-103H,,,,,,1.04,1.02,1.02,0.802,0.913,0.949,0.964,0.924,0.792,0.768,0.676,0.707,0.68,0.533,0.611
NCI-H1650,0.666,0.352,0.402,0.291,0.289,,,,,,,,,,,0.415,0.399,0.306,0.253,0.212
Calu-6,0.538,0.35,0.196,0.194,0.2,0.941,0.679,0.645,0.515,0.444,0.831,0.667,0.609,0.412,0.505,,,,,
